What was measured:
[1] = Encapsulation efficiency of LNP preparations (Ribogreen assay; Qubit, unlysed and lysed LNPs); format: physicochemical; details: LNP preparation with the ionizable lipid, ABE mRNA:sgRNA 1:1, except 7-1, 7-2, 7-6, 7-10 (unlysed and lysed LNPs, Qubit)
Description: (§1) Lipid nanoparticle components were dissolved in 100% ethanol at specified lipid component molar ratios. mRNA encoding an adenine base editor and a chemically-modified sgRNA was dissolved at a mass ratio of 1:1 in 50 mM citrate, pH 4.0, resulting in a concentration of NA cargo of approximately 0.1 mg/mL.
(§2) LNP preparations were formulated with molar ratios of 47.5% Ionizable Lipid: 40% Cholesterol: 2.5% PEG2000-DMG: 10% DSPC total lipid to NA molar ratio of 6 to 12.
(§3) LNP preparations were formed by microfluidic mixing of the lipid and NA solutions using Precision Nanosystems NanoAssemblr Ignite series Instruments, according to the manufacturer's protocol.
With the exception of LNPs comprising ionizable lipids 7-1, 7-2, 7-6, and 7-10, RNA concentration and encapsulation efficiency were determined by Ribogreen assay (BioTek Synergy LX plate reader). For LNPs comprising ionizable lipids 7-1, 7-2, 7-6, and 7-10, RNA concentration was determined by Qubit microRNA kit (for siRNA) or HS RNA kit (for mRNA) per manufacturer's instructions, and encapsulation efficiency was determined by measuring unlysed and lysed LNPs.

[2] = LNP hydrodynamic diameter and polydispersity index by dynamic light scattering (DLS); format: physicochemical; details: for Diameter (nm): hydrodynamic diameter of the LNP preparation with the ionizable lipid; for PDI: polydispersity index of the LNP preparation with the ionizable lipid
Description: (§4) A 3:1 ratio of aqueous to organic solvent was maintained during mixing using differential flow rates. After mixing, LNP preparations were collected and diluted in TBS (approximately 7:1 v/v), and further buffer exchange was conducted using dialysis in TBS at 4° C. for 8 to 24 hours against a 20 kDa filter. After this initial dialysis, each individual LNP preparation was characterized via dynamic light scattering (DLS) to measure size and polydispersity. pKa of a subpopulation of LNP preparations was measured via TNS assay.
DLS-LNP preparation hydrodynamic diameter and polydispersity index (PDI) was measured using high throughput dynamic light scattering (DLS) (DynaPro plate reader II, Wyatt). LNP preparations were diluted 1×PBS to an appropriate concentration and analyzed.

ALAS1 target site = experiment: Base editing in liver by LNP-delivered ABE mRNA and sgRNA, targeted deep sequencing; format: in vivo; details: LNP with the ionizable lipid, ABE mRNA + sgRNA targeting ALAS1 1:1; tail vein injection, Balb/c mice; 0.05 mg/kg; tissues four to six days post-dose
Description: as §1, §2, §3, §4
Male Balb/C mice aged approximately 8-12 weeks were used in the experiments described herein. […]
Age-matched mice were also used to administer vehicle (1×TBS) via tail vein injection as a control. Four to six days post-dose, tissues including liver, spleen, and bone marrow were collected. Base editing was determined by performing targeted deep sequencing analysis at the ALAS1 target site using extracted genomic DNA. Genomic DNA was isolated and fragmented and adapter-ligated using the Nextera DNA Flex Library Prep Kit (Illumina) using the 96-well plate Nextera indexing primers (Illumina), according to the manufacturer's instructions. Library size and concentration was confirmed by Fragment Analyzer (Agilent) and analyzed for whole genome sequencing using an Illumina HiSeq.

SMILES | Encapsulation Efficiency (%) [1] [%] | Diameter (nm) [2] [nm] | PDI [2] | % Editing in Liver (0.05 mpk) (ALAS1 target site) [%]
CC/C=C\CCCCOC(CCC(=O)OCC(COC(=O)CCCCCCCOC(=O)C(CCCC)CCCCCC)COC(=O)OCC(CCCCCC)OC(=O)NCCN1CCCC1)OCCCC/C=C\CC (centres unmarked) [Compound 7-8, 12-(((4,4-bis(((Z)-oct-5-en-1-yl)oxy)butanoyl)oxy)methyl)-6-hexyl-4,9,15-trioxo-1-(pyrrolidin-1-yl)-5,8,10,14-tetraoxa-3-azadocosan-22-yl 2-butyloctanoate] | 95.5 | 62.8 | 0.07 | 14.8
CC/C=C\CCCCOC(CCC(=O)OCC(COC(=O)CCCCCCC(=O)OCCC(CCCC)CCCC)COC(=O)CCC(CCCCCC)OC(=O)NCCN1CCCC1)OCCCC/C=C\CC (centres unmarked) [Compound 7-18, 1-(3-((4,4-bis(((Z)-oct-5-en-1-yl)oxy)butanoyl)oxy)-2-(((4-(((2-(pyrrolidin-1-yl)ethyl)carbamoyl)oxy)decanoyl)oxy)methyl)propyl) 8-(3-butylheptyl) octanedioate] | 96.1 | 55.60 | 0.08 | 3.3
CC/C=C\CCCCOC(CCC(=O)OCC(COC(=O)CCCCCCOC(=O)C(CCCC)CCCCCC)COC(=O)CCC(CCCCCC)OC(=O)NCCN(CC)CC)OCCCC/C=C\CC (centres unmarked) [Compound 7-41, 3-((4,4-bis(((Z)-oct-5-en-1-yl)oxy)butanoyl)oxy)-2-(((7-((2-butyloctanoyl)oxy)heptanoyl)oxy)methyl)propyl 4-(((2-(diethylamino)ethyl)carbamoyl)oxy)decanoate] | 95.9 | 59.05 | 0.06 | 4.5
CC/C=C\CCCCOC(CCC(=O)OCC(COC(=O)CCCCCCOC(=O)C(CCCC)CCCCCC)COC(=O)CCC(CCCCC)OC(=O)NCCN1CCCC1)OCCCC/C=C\CC (centres unmarked) [Compound 7-23, 3-((4,4-bis(((Z)-oct-5-en-1-yl)oxy)butanoyl)oxy)-2-(((7-((2-butyloctanoyl)oxy)heptanoyl)oxy)methyl)propyl 4-(((2-(pyrrolidin-1-yl)ethyl)carbamoyl)oxy)nonanoate] | 98.7 | 57.90 | 0.12 | 1.0
CC/C=C\CCCCOC(CCC(=O)OCC(COC(=O)CCC(CCCCCC)OC(=O)NCCN1CCCC1)COC(=O)CCC(OCCCC/C=C\CC)OCCCC/C=C\CC)OCCCC/C=C\CC (centres unmarked) [Compound 7-38, 2-(((4-(((2-(pyrrolidin-1-yl)ethyl)carbamoyl)oxy)decanoyl)oxy)methyl)propane-1,3-diyl bis(4,4-bis(((Z)-oct-5-en-1-yl)oxy)butanoate)] | 99.1 | 60.25 | 0.06 | 9.4
CC/C=C\CCCCOC(CCC(=O)OCC(COC(=O)CCCCCCOC(=O)C(CCCC)CCCCCC)COC(=O)CCC(CCCCCC)OC(=O)OCCCN(CC)CC)OCCCC/C=C\CC (centres unmarked) [Compound 7-45, 3-((4,4-bis(((Z)-oct-5-en-1-yl)oxy)butanoyl)oxy)-2-(((7-((2-butyloctanoyl)oxy)heptanoyl)oxy)methyl)propyl 4-(((3-(diethylamino)propoxy)carbonyl)oxy)decanoate] | 93.4 | 81.8 | 0.13 | 3.4
CC/C=C\CCCCOC(CCC(=O)OCC(COC(=O)CCCCCC(=O)OCCC(CCCC)CCCC)COC(=O)CCC(CCCCCC)OC(=O)NCCN1CCCC1)OCCCC/C=C\CC (centres unmarked) [Compound 7-12, 1-(3-((4,4-bis(((Z)-oct-5-en-1-yl)oxy)butanoyl)oxy)-2-(((4-(((2-(pyrrolidin-1-yl)ethyl)carbamoyl)oxy)decanoyl)oxy)methyl)propyl) 7-(3-butylheptyl) heptanedioate] | 96.4 | 69.26 | 0.11 | 1.7
CC/C=C\CCCCOC(CCC(=O)OCC(COC(=O)CCC(CCCCC)OC(=O)NCCN1CCCC1)COC(=O)CCC(OCCCC/C=C\CC)OCCCC/C=C\CC)OCCCC/C=C\CC (centres unmarked) [Compound 7-37, 2-(((4-(((2-(pyrrolidin-1-yl)ethyl)carbamoyl)oxy)nonanoyl)oxy)methyl)propane-1,3-diyl bis(4,4-bis(((Z)-oct-5-en-1-yl)oxy)butanoate)] | 94.7 | 66.20 | 0.12 | 12.0
CCCCCCCCOC(CCC(=O)OCC(COC(=O)CCCCCC(=O)OCCC(CCCCC)CCCCC)COC(=O)CCC(CCCCCC)OC(=O)NCCN1CCCC1)OCCCCCCCC (centres unmarked) [Compound 7-15, 1-(3-((4,4-bis(octyloxy)butanoyl)oxy)-2-(((4-(((2-(pyrrolidin-1-yl)ethyl)carbamoyl)oxy)decanoyl)oxy)methyl)propyl) 7-(3-pentyloctyl) heptanedioate] | 97.9 | 58.45 | 0.08 | 6.8
CC/C=C\CCCCOC(CCC(=O)OCC(COC(=O)CCCCCC(=O)OCCC(CCCCC)CCCCC)COC(=O)CCC(C)OC(=O)NCCN1CCCC1)OCCCC/C=C\CC (centres unmarked) [Compound 7-30, 1-(3-((4,4-bis(((Z)-oct-5-en-1-yl)oxy)butanoyl)oxy)-2-(((4-(((2-(pyrrolidin-1-yl)ethyl)carbamoyl)oxy)pentanoyl)oxy)methyl)propyl) 7-(3-pentyloctyl) heptanedioate] | 98.3 | 71.40 | 0.10 | 0.8

Second part, led by results:

Encapsulation Efficiency (%) [1] [%] | Diameter (nm) [2] [nm] | PDI [2] | SMILES | % Editing in Liver (0.05 mpk) (ALAS1 target site) [%]
97.6 | 59.40 | 0.09 | CC/C=C\CCCCOC(CCC(=O)OCC(COC(=O)CCCCCC(=O)OCCC(CCCCCC)CCCCCC)COC(=O)CCC(CCCCCC)OC(=O)NCCN1CCCC1)OCCCC/C=C\CC (centres unmarked) [Compound 7-14, 1-(3-((4,4-bis(((Z)-oct-5-en-1-yl)oxy)butanoyl)oxy)-2-(((4-(((2-(pyrrolidin-1-yl)ethyl)carbamoyl)oxy)decanoyl)oxy)methyl)propyl) 7-(3-hexylnonyl) heptanedioate] | 0.1
96.9 | 61.25 | 0.06 | CC/C=C\CCCCOC(CCC(=O)OCC(COC(=O)CCCCCC(=O)OCCC(CCCCC)CCCCC)COC(=O)CCC(CCCCC)OC(=O)NCCN1CCCC1)OCCCC/C=C\CC (centres unmarked) [Compound 7-27, 1-(3-((4,4-bis(((Z)-oct-5-en-1-yl)oxy)butanoyl)oxy)-2-(((4-(((2-(pyrrolidin-1-yl)ethyl)carbamoyl)oxy)nonanoyl)oxy)methyl)propyl) 7-(3-pentyloctyl) heptanedioate] | 5.3
97.3 | 52.45 | 0.04 | CC/C=C\CCCCOC(CCC(=O)OCC(COC(=O)CCCCCC(=O)OCCC(CCCCC)CCCCC)COC(=O)CCC(CCCCCC)OC(=O)NCCN1CCCC1)OCCCC/C=C\CC (centres unmarked) [Compound 7-13, 1-(3-((4,4-bis(((Z)-oct-5-en-1-yl)oxy)butanoyl)oxy)-2-(((4-(((2-(pyrrolidin-1-yl)ethyl)carbamoyl)oxy)decanoyl)oxy)methyl)propyl) 7-(3-pentyloctyl) heptanedioate] | 2.2
98.0 | 52.55 | 0.05 | CC/C=C\CCCCOC(CCC(=O)OCC(COC(=O)CCCCC(=O)OCCC(CCCCCC)CCCCCC)COC(=O)CCC(CCCCCC)OC(=O)NCCN1CCCC1)OCCCC/C=C\CC (centres unmarked) [Compound 7-16, 3-((4,4-bis(((Z)-oct-5-en-1-yl)oxy)butanoyl)oxy)-2-(((4-(((2-(pyrrolidin-1-yl)ethyl)carbamoyl)oxy)decanoyl)oxy)methyl)propyl (3-hexylnonyl) adipate] | 0.7

Source: patent US12296053B2, “Nanomaterials comprising triols” (Beam Therapeutics Inc., priority 2022, dated 2025)
